How the values were obtained:
[1] = target: T1, STAT6 (Homo sapiens, UniProt P42226); test: Stat6 Degrader Assay (HiBiT based, HeLa LgBiT clone 4.14); format: cell-based; conditions: HeLa LgBiT clone 4.14 HiBiT-STAT6, 4-24 h incubation; values given for compounds with >80% Emax; geometric mean; read-out: STAT6 degradation DC50
T1 construct: These cells express endogenous STAT6; host or cells: HeLa LgBiT clone 4.14
T1 sequence (P42226 1-847): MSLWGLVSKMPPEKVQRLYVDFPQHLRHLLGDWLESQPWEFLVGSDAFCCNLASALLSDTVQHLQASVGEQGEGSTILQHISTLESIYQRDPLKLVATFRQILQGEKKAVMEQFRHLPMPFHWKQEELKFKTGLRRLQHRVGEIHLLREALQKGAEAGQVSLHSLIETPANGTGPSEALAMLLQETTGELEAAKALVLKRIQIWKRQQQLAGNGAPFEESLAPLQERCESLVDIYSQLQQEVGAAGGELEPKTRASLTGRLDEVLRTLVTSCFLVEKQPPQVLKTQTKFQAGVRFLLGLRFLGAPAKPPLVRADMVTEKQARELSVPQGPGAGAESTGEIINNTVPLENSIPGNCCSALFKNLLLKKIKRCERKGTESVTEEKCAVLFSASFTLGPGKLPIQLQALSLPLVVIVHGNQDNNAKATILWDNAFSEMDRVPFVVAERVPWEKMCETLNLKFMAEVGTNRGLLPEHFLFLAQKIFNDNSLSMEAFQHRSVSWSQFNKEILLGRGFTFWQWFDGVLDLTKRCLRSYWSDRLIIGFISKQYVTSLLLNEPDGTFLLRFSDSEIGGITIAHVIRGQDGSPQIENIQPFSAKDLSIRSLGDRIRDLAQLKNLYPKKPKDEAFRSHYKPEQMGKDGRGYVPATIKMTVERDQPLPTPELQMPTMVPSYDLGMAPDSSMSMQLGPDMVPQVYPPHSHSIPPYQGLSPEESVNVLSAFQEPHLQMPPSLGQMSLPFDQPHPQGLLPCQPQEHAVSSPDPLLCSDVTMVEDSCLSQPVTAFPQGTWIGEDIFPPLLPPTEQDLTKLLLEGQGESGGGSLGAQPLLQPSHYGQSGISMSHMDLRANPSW
In short: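 HeLa LgBiT clone 4.14 cells with CRISPR HiBiT-tagged endogenous STAT6, 5000 cells/well, compound dosed then incubated 4-24 h at 37° C, 5% CO2. Nano-Glo substrate added, 0.5 h, luminescence read as non-degraded STAT6. Terfenadine 50 μM (cell kill) defines 100% degradation.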

[2] = system: Eotaxin-3 release in human whole blood stimulated with IL-4; test: Human Whole Blood Eotaxin-3 Assay (IL-4 stimulated eotaxin-3 release); format: cell-based; conditions: IL-4 stimulation, 48 h, values given for compounds with >80% Emax, geometric mean
In short: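 Lithium-heparin human whole blood preincubated 2 h at 37° C with 4-fold serially diluted compounds (0.5% DMSO), then stimulated with recombinant human IL-4 ([…]) for 48 h. Eotaxin-3 (CCL26) in supernatant quantified by MSD immunoassay.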

Compound | DC50 [1] | EC50 [2]
CNc1cc(=O)n(-c2ccnc3c2cc(CN2CCC(c4c(F)cc(C(=O)N5CCC(CN6CCN(Cc7cc8c(cc7F)N(C7CCC(=O)NC7=O)C(=O)C87CC7)CC6)CC5)cc4F)CC2)n3C)cc1F (centres unmarked) [Example 3u93, 3-(5′-((4-((1-(3,5-difluoro-4-(1-((4-(5-fluoro-4-(methylamino)-2-oxopyridin-1 (2H)-yl)-1-methyl-1H-pyrrolo[2,3-b]pyridin-2-yl)methyl)piperidin-4-yl)benzoyl)piperidin-4-yl)methyl)piperazin-1-yl)methyl)-6′-fluoro-2′-oxospiro[cyclopropane-1,3′-indolin]-1′-yl)piperidine-2,6-dione] | 26.9 nM | 16.6 nM
CNc1ccn(-c2ccnc3c2cc(CN2CCC(c4c(F)cc(C(=O)N5CCC(CN6CCN(Cc7ccc8c(c7)C(C)(C)C(=O)N8C7CCC(=O)NC7=O)C[C@@H]6C)CC5)cc4F)CC2)n3C)c(=O)c1 (stereo partly drawn) [Example 3u204, 3-(5-(((S)-4-((1-(3,5-difluoro-4-(1-((1-methyl-4-(4-(methylamino)-2-oxopyridin-1 (2H)-yl)-1H-pyrrolo[2,3-b]pyridin-2-yl)methyl)piperidin-4-yl)benzoyl)piperidin-4-yl)methyl)-3-methyl-piperazin-1-yl)methyl)-3,3-dimethyl-2-oxoindolin-1-yl)piperidine-2,6-dione] | 2.5 nM | 4.6 nM
CNc1cc(=O)n(-c2ccnc3c2cc(CN2CC=C(c4c(F)cc(C(=O)N5CCC(CN6CCN(Cc7ccc8c(c7)n(C7CC7)c(=O)n8[C@@H]7CCC(=O)NC7=O)C[C@@H]6C)CC5)cc4F)CC2)n3C)cc1F (single isomer, unassigned) [Example 3u215] | 3.5 nM | 5.6 nM
C[C@H]1CN(Cc2ccc3c(c2)C(C)(C)C(=O)N3[C@H]2CCC(=O)NC2=O)CCN1CC1CCN(C(=O)c2ccc(C3CCN([C@@H](C)c4cc5c(-n6ccc7c(c6=O)CCN7)ccnc5n4C)CC3)cc2)CC1 (single isomer, unassigned) [Example 3u185] | 2.8 nM | 2.3 nM
CNc1cc(=O)n(-c2ccnc3c2cc([C@H](C)N2CC=C(c4c(C)cc(C(=O)N5CCC(CN6CCN(Cc7ccc8c(c7)n(C)c(=O)n8[C@@H]7CCC(=O)NC7=O)CC6)CC5)cc4F)CC2)n3C)cc1F (single isomer, unassigned) [Example 3u15] | 0.8 nM | 2.2 nM
CNc1cc(=O)n(-c2ccnc3c2cc([C@H](C)N2CC=C(c4c(C)cc(C(=O)N5CCC(CN6CCN(Cc7ccc8c(c7)C7(CC7)C(=O)N8C7CCC(=O)NC7=O)C[C@@H]6C)CC5)cc4F)CC2)n3C)cc1F (stereo partly drawn) [Example 3u164, 3-(5′-(((S)-4-((1-(3-fluoro-4-(1-((S)-1-(4-(5-fluoro-4-(methylamino)-2-oxopyridin-1 (2H)-yl)-1-methyl-1H-pyrrolo[2,3-b]pyridin-2-yl)ethyl)-1,2,3,6-tetrahydropyridin-4-yl)-5-methyl-benzoyl)piperidin-4-yl)methyl)-3-methylpiperazin-1-yl)methyl)-2′-oxospiro[cyclopropane-1,3′-indolin]-1′-yl)piperidine-2,6-dione] | 1 nM | 2 nM
CNc1cc(=O)n(-c2ccnc3c2cc([C@H](C)N2CC=C(c4c(C)cc(C(=O)N(C)c5ccc(N6CCC(O)(Cc7ccc8c(c7)C7(CC7)C(=O)N8C7CCC(=O)NC7=O)CC6)nc5)cc4F)CC2)n3C)cc1F (stereo partly drawn) [Example 3u240, N-(6-(4-((1′-(2,6-dioxopiperidin-3-yl)-2′-oxospiro[cyclopropane-1,3′-indolin]-5′-yl)methyl)-4-hydroxypiperidin-1-yl)pyridin-3-yl)-3-fluoro-4-(1-((S)-1-(4-(5-fluoro-4-(methylamino)-2-oxopyridin-1 (2H)-yl)-1-methyl-1H-pyrrolo[2,3-b]pyridin-2-yl)ethyl)-1,2,3,6-tetrahydropyridin-4-yl)-N,5-dimethylbenzamide] | 1.1 nM | 1.3 nM
CNc1cc(=O)n(-c2ccnc3c2cc(CN2CCC(c4c(F)cc(C(=O)N5CCC(CN6CCN(Cc7ccc8c(c7)n(C)c(=O)n8[C@H]7CCC(=O)NC7=O)C[C@@H]6C)CC5)cc4F)CC2)n3C)cc1F (single isomer, unassigned) [Example 3u61] | 1.9 nM | 1.2 nM
CNc1cc(=O)n(-c2ccnc3c2cc([C@H](C)N2CC=C(c4c(C)cc(C(=O)N5CCC(CN6CCN(Cc7ccc8c(c7)n(C)c(=O)n8[C@H]7CCC(=O)NC7=O)CC6)CC5)cc4F)CC2)n3C)cc1F (single isomer, unassigned) [Example 3u14] | 0.6 nM | 1.2 nM
Cc1cc(C(=O)N(C)c2ccc(C3CCN(Cc4ccc5c(c4)n(C)c(=O)n5C4CCC(=O)NC4=O)CC3)cc2)cc(F)c1C1=CCN([C@@H](C)c2cc3c(-n4ccc5c(c4=O)CCN5)ccnc3n2C)CC1 (stereo partly drawn) [Example 3u250, N-(4-(1-((1-(2,6-dioxopiperidin-3-yl)-3-methyl-2-oxo-2,3-dihydro-1H-benzo[d]imidazol-5-yl)methyl)piperidin-4-yl)phenyl)-3-fluoro-N,5-dimethyl-4-(1-((S)-1-(1-methyl-4-(4-oxo-1,2,3,4-tetrahydro-5H-pyrrolo[3,2-c]pyridin-5-yl)-1H-pyrrolo[2,3-b]pyridin-2-yl)ethyl)-1,2,3,6-tetrahydropyridin-4-yl)benzamide] | 0.1 nM | 0.4 nM
CNc1ccn(-c2ccnc3c2cc([C@H](C)N2CC=C(c4c(C)cc(C(=O)N5CCC(CN6CCN(Cc7ccc8c(c7)n(C)c(=O)n8[C@@H]7CCC(=O)NC7=O)CC6)CC5)cc4F)CC2)n3C)c(=O)c1 (single isomer, unassigned) [Example 3u157] | 0.3 nM | 0.4 nM
C[C@H]1CN(Cc2ccc3c(c2)n(C2CC2)c(=O)n3[C@@H]2CCC(=O)NC2=O)CCN1CC1CCN(C(=O)c2cc(F)c(C3CCN(Cc4cc5c(-n6ccc7c(c6=O)CCN7)ccnc5n4C)CC3)c(F)c2)CC1 (single isomer, unassigned) [Example 3u108] | 3.4 nM | 4.1 nM
CNc1ccn(-c2ccnc3c2cc([C@H](C)N2CC=C(c4c(C)cc(C(=O)N5CCC(CN6CCN(Cc7cc8c(cc7F)N(C7CCC(=O)NC7=O)C(=O)C8(C)C)C[C@@H]6C)CC5)cc4F)CC2)n3C)c(=O)c1 (stereo partly drawn) [Example 3u181, 3-(6-fluoro-5-(((S)-4-((1-(3-fluoro-5-methyl-4-(1-((S)-1-(1-methyl-4-(4-(methyl-amino)-2-oxopyridin-1 (2H)-yl)-1H-pyrrolo[2,3-b]pyridin-2-yl)ethyl)-1,2,3,6-tetrahydropyridin-4-yl)-benzoyl)piperidin-4-yl)methyl)-3-methylpiperazin-1-yl)methyl)-3,3-dimethyl-2-oxoindolin-1-yl)-piperidine-2,6-dione] | 3.4 nM | 16.3 nM
CNc1ccn(-c2ccnc3c2cc(CN2CC=C(c4c(C)cc(C(=O)N(C)c5ccc(C6CCN(Cc7ccc8c(c7)C(C)(C)C(=O)N8C7CCC(=O)NC7=O)CC6)cc5)cc4F)CC2)n3C)c(=O)c1 (centres unmarked) [Example 3u228, N-(4-(1-((1-(2,6-dioxopiperidin-3-yl)-3,3-dimethyl-2-oxoindolin-5-yl)methyl)-piperidin-4-yl)phenyl)-3-fluoro-N,5-dimethyl-4-(1-((1-methyl-4-(4-(methylamino)-2-oxopyridin-1 (2H)-yl)-1H-pyrrolo[2,3-b]pyridin-2-yl)methyl)-1,2,3,6-tetrahydropyridin-4-yl)benzamide] | 0.2 nM | 1.2 nM
CNc1cc(=O)n(-c2ccnc3c2cc([C@H](C)N2CCC(c4ccc(C(=O)N5CCC(CN6CCN(Cc7ccc8c(c7)C7(CC7)C(=O)N8[C@@H]7CCC(=O)NC7=O)C[C@@H]6C)CC5)cc4)CC2)n3C)cc1F (single isomer, unassigned) [Example 3u38] | 1.3 nM | 1.5 nM
CNc1cc(=O)n(-c2ccnc3c2cc([C@H](C)N2CC=C(c4c(C)cc(C(=O)N5CCC(CN6CCN(c7ccc8c(c7)C(C)(C)C(=O)N8C7CCC(=O)NC7=O)CC6)CC5)cc4F)CC2)n3C)cc1F (stereo partly drawn) [Example 3u303, 3-(5-(4-((1-(3-fluoro-4-(1-((S)-1-(4-(5-fluoro-4-(methylamino)-2-oxopyridin-1 (2H)-yl)-1-methyl-1H-pyrrolo[2,3-b]pyridin-2-yl)ethyl)-1,2,3,6-tetrahydropyridin-4-yl)-5-methylbenzoyl)piperidin-4-yl)methyl)piperazin-1-yl)-3,3-dimethyl-2-oxoindolin-1-yl)piperidine-2,6-dione] | 21.7 nM | 37.1 nM

From patent US20250320206A1, “STAT6 DEGRADERS” (Gilead Sciences, Inc., priority 2024, published 2025)
